Legend:
[1] = Thermal activity by microcalorimetry; assay type: physicochemical; details: microcalorimeter at 25° C., scanned from about 30% to about 90% relative humidity
Description: To confirm that the salbutamol sulphate had been converted to the desired low energy, crystalline form i.e. had been annealed, the thermal activity and the water content of the treated salbutamol sulphate compared to untreated salbutamol sulphate was measured using standard microcalorimetry techniques and moisture sorption techniques respectively. A Hart Scientific Microcalorimeter (model 4400) was operated at 25° C. with a water adsorption unit and scanned from about 30% to about 90% relative humidity over a 11.5 hour period. Thermal equilibration time was 1 to 2 hours.

[2] = Water content by vacuum balance moisture sorption; assay type: physicochemical; details: for water content: typical/normal value stated in description
Description: To confirm that the salbutamol sulphate had been converted to the desired low energy, crystalline form i.e. had been annealed, the thermal activity and the water content of the treated salbutamol sulphate compared to untreated salbutamol sulphate was measured using standard microcalorimetry techniques and moisture sorption techniques respectively.
A VTI Corp vacuum balance moisture sorption apparatus (model MB300G) was operated at 25° C., and scanned from about 20% to about 90% relative humidity, total scan time about 15 hours. Drying was accomplished at 35° C. under vacuum for approximately 1 hour before the equilibrium condition used for the scans of 3 micrograms/6 minutes was achieved. This same equilibrium weight change criterion was used for the sorption measurements.

[3] = listed as Particulate salbutamol sulphate

| Substance | thermal activity (heat rate) [1] | water content ([2]; listed as annealed salbutamol sulphate) | moisture content (moisture sorption profile, % weight gain against relative humidity) ([2]; 25° C., scanned from about 20% to about 90% relative humidity) | water content [2, 3] | thermal activity (heat rate) [1, 3] |
| --- | --- | --- | --- | --- | --- |
| salbutamol sulphate [Example 2] | lack significant thermal activity | – | – | – | – |
| salbutamol sulphate [Example 3] | lack significant thermal activity | – | – | – | – |
| salbutamol sulphate [Example 4] | lacks significant thermal activity | – | – | – | – |
| salbutamol sulphate [treated salbutamol sulphate] | absent | less than 0.4 % by weight | – | – | – |
| salbutamol sulphate [untreated salbutamol sulphate, reference compound] | exothermic rise in heat rate up to approximately 55% relative humidity followed by a large endothermic response | – | significantly larger moisture content | ≥ 0.5 % by weight | significantly greater thermal activity |
